Reference: publication PMC11904993, “Humanized Candida and NanoBiT Assays Expedite Discovery of Bdf1 Bromodomain Inhibitors With Antifungal Potential” (Advanced Science, 2025)
Where “and” joins values, the source holds several entries; their conditions need not be identical. Identical values can stand only once.

Legend:
human Brd4 BD1 = human Brd4 BD1 (Homo sapiens, UniProt O60885); test: HTRF assay, inhibition of H4ac4 peptide binding; settings: Fig 2E
human Brd4 BD2 = target: T1, human Brd4 BD2 (Homo sapiens, UniProt O60885); test: HTRF assay, inhibition of H4ac4 peptide binding; settings: for %HTRF Signal hBrd4 BD2: Fig 2E
T1 construct: GST‐tagged BD2 (residues 349–460) from human Brd4 (UniProt ID O60885); purchased Reaction Biology Corp

CaBdf1 BD1 = target: T2, CaBdf1 BD1 (Candida albicans, UniProt Q5A4W8); test: HTRF assay, inhibition of H4ac4 peptide binding; set-up: species or system C. albicans
T2 construct: BD1 (residues 193–327) and BD2 (residues 361–501) from CaBdf1 (Uniprot ID Q5A4W8); made in house; host or cells: E. coli BL21(DE3)
T2 sequence (Q5A4W8 193-327): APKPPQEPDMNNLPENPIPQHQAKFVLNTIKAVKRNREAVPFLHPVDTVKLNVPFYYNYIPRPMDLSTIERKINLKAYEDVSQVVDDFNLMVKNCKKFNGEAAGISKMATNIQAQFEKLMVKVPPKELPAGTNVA

CaBdf1 BD2 = target: T3, CaBdf1 BD2 (Candida albicans, UniProt Q5A4W8); test: HTRF assay, inhibition of H4ac4 peptide binding; set-up: species or system C. albicans
T3 construct: BD1 (residues 193–327) and BD2 (residues 361–501) from CaBdf1 (Uniprot ID Q5A4W8); made in house; host or cells: E. coli BL21(DE3)
T3 sequence (Q5A4W8 361-501): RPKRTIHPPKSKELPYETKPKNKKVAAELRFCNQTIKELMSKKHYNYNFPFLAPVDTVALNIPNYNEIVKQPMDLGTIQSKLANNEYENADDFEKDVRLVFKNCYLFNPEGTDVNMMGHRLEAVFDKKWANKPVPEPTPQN

[1] = target: T4, Bdf1‐SmBiT/H2A.Z‐LgBiT pair (Saccharomyces cerevisiae, UniProt P35817); test: NanoBiT assay; assay type: cell-based, S. cerevisiae; set-up: remaining activity: dose or concentration left out as unconfirmed
T4 construct: expressed in transfected cells; host or cells: S. cerevisiae (H2A.Z-LgBiT strain)
T4 sequence (P35817 whole entry): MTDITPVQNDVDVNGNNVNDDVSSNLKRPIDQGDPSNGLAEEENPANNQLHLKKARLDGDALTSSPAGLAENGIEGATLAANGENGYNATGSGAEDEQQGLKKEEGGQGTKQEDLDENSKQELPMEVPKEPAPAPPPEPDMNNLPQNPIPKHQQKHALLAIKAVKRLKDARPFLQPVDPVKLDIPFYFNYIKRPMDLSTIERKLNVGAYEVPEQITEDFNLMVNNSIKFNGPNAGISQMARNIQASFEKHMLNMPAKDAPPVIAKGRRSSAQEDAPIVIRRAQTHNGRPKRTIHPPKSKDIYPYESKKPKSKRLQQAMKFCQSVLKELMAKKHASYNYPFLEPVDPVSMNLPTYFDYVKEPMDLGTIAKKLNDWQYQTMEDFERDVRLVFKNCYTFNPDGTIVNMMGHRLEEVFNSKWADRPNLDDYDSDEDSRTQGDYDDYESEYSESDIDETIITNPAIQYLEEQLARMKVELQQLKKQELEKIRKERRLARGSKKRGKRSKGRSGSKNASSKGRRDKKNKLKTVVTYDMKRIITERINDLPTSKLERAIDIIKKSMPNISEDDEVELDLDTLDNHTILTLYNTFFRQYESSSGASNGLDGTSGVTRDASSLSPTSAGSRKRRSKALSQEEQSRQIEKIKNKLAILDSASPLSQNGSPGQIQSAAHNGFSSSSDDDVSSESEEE
Protocol: (§1) Yeast strains were distributed in 96‐well microplates containing SC(MSG)‐U medium (SC‐U medium with 0.1% monosodium glutamate instead of ammonium sulfate as a nitrogen source) and grown at 30 °C. 40 µL of exponentially growing cells were transferred in white 96‐well half‐area microplates (ProxiPlate Plus, Greiner Bio‐One) previously filled with 40 µL per well of SC(MSG) containing 100 µM furimazine. The microplates were then incubated for 10 min in the dark before the luminescence signals were recorded using a microplate reader (Ensight, PerkinElmer). Luminescence measurements were performed for 1 s per well at a distance of 0.1 mm between the plate and the detector. The luminescence values were normalized with the optical density (OD600) of the corresponding cultures. For NanoBiT assays with BET inhibitors, yeast cultures were grown overnight at 30 °C in SC(MSG) medium in the presence of serial dilutions of 24c and I‐BET726. Overnight cultures were diluted 5 fold in SC(MSG) and incubated for 1 h before luminescence was recorded as previously indicated. Luminescence values for each condition were normalized using the average of the luminescence recorded for the Bdf1/Swc4 and Bmh1/Bmh2 controls.

Bdf1/Swc4 = target: T5, Bdf1/Swc4 (Saccharomyces cerevisiae, UniProt P35817); test: NanoBiT assay, control pair; assay type: cell-based, S. cerevisiae; set-up: remaining activity: dose or concentration left out as unconfirmed
T5 construct: expressed in transfected cells; host or cells: S. cerevisiae
T5 sequence (P35817 whole entry): as above
T5 sequence (P53201 whole entry, further chain): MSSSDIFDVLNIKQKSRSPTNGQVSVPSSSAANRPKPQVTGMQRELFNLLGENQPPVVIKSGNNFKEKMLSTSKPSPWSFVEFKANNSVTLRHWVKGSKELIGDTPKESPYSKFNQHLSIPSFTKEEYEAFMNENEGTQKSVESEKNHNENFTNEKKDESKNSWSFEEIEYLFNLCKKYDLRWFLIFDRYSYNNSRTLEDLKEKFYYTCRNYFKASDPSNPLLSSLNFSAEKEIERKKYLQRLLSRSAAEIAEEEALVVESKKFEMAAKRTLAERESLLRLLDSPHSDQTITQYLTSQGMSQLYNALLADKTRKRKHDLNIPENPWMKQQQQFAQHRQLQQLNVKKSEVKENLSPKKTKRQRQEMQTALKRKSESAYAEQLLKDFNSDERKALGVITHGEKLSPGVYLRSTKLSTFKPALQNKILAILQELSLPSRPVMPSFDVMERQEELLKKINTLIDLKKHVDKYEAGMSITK
Protocol: as §1

For `Cc1ccc(-c2nnc(C)c(NCc3ccc(C)o3)n2)cc1` [Compound 24c, 6‐methyl‐N‐((5‐methylfuran‐2‐yl)methyl)‐3‐(p‐tolyl)‐1,2,4‐triazin‐5‐amine], the “%HTRF Signal hBrd4 BD1” value (human Brd4 BD1; 8.000 microM) was 95.80% and 101.11% and 96.69%, the “%HTRF Signal hBrd4 BD1” value (human Brd4 BD1; 20.000 microM) was 84.01% and 92.12% and 87.26% and the IC50 (human Brd4 BD2) was > 20 µM. The “%HTRF Signal hBrd4 BD2” value (human Brd4 BD2; 0.002 microM) was 101.87% and 97.60% and 95.93%, the “%HTRF Signal hBrd4 BD2” value (human Brd4 BD2; 0.005 microM) was 107.00% and 95.29% and 98.83% and the “%HTRF Signal hBrd4 BD2” value (human Brd4 BD2; 0.013 microM) was 110.74% and 98.44% and 97.06%. For the same compound, the “%HTRF Signal hBrd4 BD2” value (human Brd4 BD2; 0.033 microM) was 106.00% and 100.34% and 100.19%, the “%HTRF Signal hBrd4 BD2” value (human Brd4 BD2; 0.082 microM) was 114.59% and 102.11% and 105.40% and the “%HTRF Signal hBrd4 BD2” value (human Brd4 BD2; 0.205 microM) was 102.46% and 102.49% and 103.89%. The “%HTRF Signal hBrd4 BD2” value (human Brd4 BD2; 0.512 microM) was 110.69% and 102.99% and 100.42%, the “%HTRF Signal hBrd4 BD2” value (human Brd4 BD2; 1.280 microM) was 110.63% and 103.66% and 98.46% and the “%HTRF Signal hBrd4 BD2” value (human Brd4 BD2; 3.200 microM) was 107.03% and 99.12% and 95.88%. The “%HTRF Signal hBrd4 BD2” value (human Brd4 BD2; 8.000 microM) was 99.23% and 96.86% and 85.81%, the “%HTRF Signal hBrd4 BD2” value (human Brd4 BD2; 20.000 microM) was 80.43% and 88.19% and 83.66% and the remaining activity at 0.013 µM (CaBdf1 BD1; CaBD1, 24c 0.013 microM, Exp1-2, read-out: Percent HTRF Signal) was 94%. The remaining activity at 0.033 µM (CaBdf1 BD1; CaBD1, 24c 0.033 microM, Exp1-2, read-out: Percent HTRF Signal) was 100%, the remaining activity at 0.082 µM (CaBdf1 BD1; CaBD1, 24c 0.082 microM, Exp1-2, read-out: Percent HTRF Signal) was 99.6% and the remaining activity at 0.2 µM (CaBdf1 BD1; CaBD1, 24c 0.20 microM, Exp1-2, read-out: Percent HTRF Signal) was 102%. The remaining activity at […] (CaBdf1 BD1; CaBD1, 24c 0.51 microM, Exp1-2, read-out: Percent HTRF Signal) was 96.9%, the remaining activity at 1.28 µM (CaBdf1 BD1; CaBD1, 24c 1.28 microM, Exp1-2, read-out: Percent HTRF Signal) was 99% and the remaining activity at 3.2 µM (CaBdf1 BD1; CaBD1, 24c 3.20 microM, Exp1-2, read-out: Percent HTRF Signal) was 90.4%. For the same compound, the remaining activity at 8 µM (CaBdf1 BD1; CaBD1, 24c 8.00 microM, Exp1-2, read-out: Percent HTRF Signal) was 85.5%, the remaining activity at 20 µM (CaBdf1 BD1; CaBD1, 24c 20.00 microM, Exp1-2, read-out: Percent HTRF Signal) was 73.3% and the “inhibition of Bdf1 BD1 from C. albicans” value (CaBdf1 BD1; HTRF, Fig S9C) was “weakly inhibited”. It also gave a remaining activity at 0.013 µM (CaBdf1 BD2; CaBD2, 24c 0.013 microM, Exp1-2, read-out: Percent HTRF Signal) of 94.3%, a remaining activity at 0.033 µM (CaBdf1 BD2; CaBD2, 24c 0.033 microM, Exp1-2, read-out: Percent HTRF Signal) of 96.5% and a remaining activity at 0.082 µM (CaBdf1 BD2; CaBD2, 24c 0.082 microM, Exp1-2, read-out: Percent HTRF Signal) of 102%. The remaining activity at 0.2 µM (CaBdf1 BD2; CaBD2, 24c 0.20 microM, Exp1-2, read-out: Percent HTRF Signal) was 102%, the remaining activity at […] (CaBdf1 BD2; CaBD2, 24c 0.51 microM, Exp1-2, read-out: Percent HTRF Signal) was 97.5% and the remaining activity at 1.28 µM (CaBdf1 BD2; CaBD2, 24c 1.28 microM, Exp1-2, read-out: Percent HTRF Signal) was 98.1%. The remaining activity at 3.2 µM (CaBdf1 BD2; CaBD2, 24c 3.20 microM, Exp1-2, read-out: Percent HTRF Signal) was 92.6%, the remaining activity at 8 µM (CaBdf1 BD2; CaBD2, 24c 8.00 microM, Exp1-2, read-out: Percent HTRF Signal) was 90.1% and the remaining activity at 20 µM (CaBdf1 BD2; CaBD2, 24c 20.00 microM, Exp1-2, read-out: Percent HTRF Signal) was 74.1%. For the same compound, the “inhibition of Bdf1 BD2 from C. albicans” value (CaBdf1 BD2; HTRF, Fig S9C) was “weakly inhibited”, the remaining activity at 195.3 µM ([1]; Bdf1-SmBiT, Htz1-LgBiT, 0.1953 mM, Fig 4C, read-out: Normalized nanoBiT signal) was 99% and the remaining activity at 390.6 µM ([1]; Bdf1-SmBiT, Htz1-LgBiT, 0.3906 mM, Fig 4C, read-out: Normalized nanoBiT signal) was 98%. The remaining activity at 781.3 µM ([1]; Bdf1-SmBiT, Htz1-LgBiT, 0.7813 mM, Fig 4C, read-out: Normalized nanoBiT signal) was 99%, the remaining activity at 3125 µM ([1]; Bdf1-SmBiT, Htz1-LgBiT, 3.1250 mM, Fig 4C, read-out: Normalized nanoBiT signal) was 98% and the remaining activity ([1]; Bdf1-SmBiT, Htz1-LgBiT, […], Fig 4C, read-out: Normalized nanoBiT signal) was 85%. It also gave an IC50 ([1]; mean and s.d., 4 independent experiments, read-out: IC50 (μM) (ScBdf1 / H2A.Z) NanoBiT signal) of 65 µM, a remaining activity at 195.3 µM (Bdf1/Swc4; Bdf1-SmBiT, Swc4-LgBiT, 0.1953 mM, Fig 4C, read-out: Normalized nanoBiT signal) of 93% and a remaining activity at 390.6 µM (Bdf1/Swc4; Bdf1-SmBiT, Swc4-LgBiT, 0.3906 mM, Fig 4C, read-out: Normalized nanoBiT signal) of 104%. It also gave a remaining activity at 781.3 µM (Bdf1/Swc4; Bdf1-SmBiT, Swc4-LgBiT, 0.7813 mM, Fig 4C, read-out: Normalized nanoBiT signal) of 108%, a remaining activity at 1562.5 µM (Bdf1/Swc4; Bdf1-SmBiT, Swc4-LgBiT, 1.5625 mM, Fig 4C, read-out: Normalized nanoBiT signal) of 100% and a remaining activity at 3125 µM (Bdf1/Swc4; Bdf1-SmBiT, Swc4-LgBiT, 3.1250 mM, Fig 4C, read-out: Normalized nanoBiT signal) of 101%. For the same compound, the remaining activity (Bdf1/Swc4; Bdf1-SmBiT, Swc4-LgBiT, […], Fig 4C, read-out: Normalized nanoBiT signal) was 96% and the “inhibition of NanoBiT signal, Bdf1/Swc4” value (Bdf1/Swc4; control pair independent of Bdf1 BDs) was “not observed”.
